The values below come from patent publication US8575357B2, “Substituted (thiazolyl-carbonyl)imidazolidinones and use thereof” (AiCuris GmbH & Co. KG, priority 2009, dated 2013).

Like-named read-outs stand apart in the source and are kept apart here.

For one assay, the target named is T1, reverse transcriptase (Human immunodeficiency virus type 1 group M subtype B, UniProt P04585).
T1 construct: negative control (mixture without reverse transcriptase); purchased Roche Diagnostics GmbH, Mannheim, Germany
The experiment in a line: Biochemical reverse transcriptase assay (Reverse Transcriptase Assay, colorimetric, Roche). The procedure: The “Reverse Transcriptase Assay, colorimetric” (Roche Diagnostics GmbH, Mannheim, Germany) is used in accordance with the manufacturer's information. The test substances are dissolved in DMSO and are used in the test diluted in 5-fold steps (final DMSO concentration 1%). The resulting values of the photometric evaluation (405/492 nm) are less than 0.1 for the negative control (mixture without reverse transcriptase) and are in the region of 1.5 for the positive control (mixture without test substance). The IC50 values of the test substances are determined as the concentration of the test substance dilution at which the measured optical density is 50% of the positive control.

In another assay the test system is HIV-1LAI. The experiment in a line: H9 assay with wild-type HIV-1 (HIV-1LAI supernatant infection, AlamarBlue). It counts as cell-based. The note with it: Human immunodeficiency virus 1, 120 h, H9 cells, 10% FCS, 5 days. The procedure: For the mixture for a 96-well MTP, 3 million PBLs are pelleted, suspended in 1 ml of RPMI 1640 medium/10% FCS and incubated together with a suitable amount of HIV-1LAI (NIH AIDS Research & Reference Reagent Program, Germantown, USA) at 37° C. for 2 hours (pellet infection). Unadsorbed viruses are subsequently washed out with PBS, and the infected cells are pelleted again and suspended in 18 ml of RPMI 1640 medium/10% FCS/interleukin-2 (40 U/ml). 180 μl thereof are pipetted into each well of a white 96-well MTP with 20 μl of test substance in suitable dilution. Alternatively, after preparation of the substance dilutions in the MTP, the HIV is pipetted in together with the cells and is not washed out again (supernatant infection). In order to avoid edge effects, the wells at the edge of the MTP are not used for substance dilutions. The second vertical row of the MTP contains only infected cells (virus control) and the eleventh vertical row only uninfected cells (cell control), in each case in RPMI 1640 medium/10% FCS/interleukin-2 (40 U/ml). The other wells of the MTP contain the compounds of the invention in various concentrations starting from the third vertical row, from which the test substances are diluted in 3-fold steps up to the tenth vertical row 3^7-fold. The test substances are dissolved in DMSO, whereby the final DMSO concentration in the test mixture is 1%. The test mixtures are incubated at 37° C./5% CO2. After 5 and 7 days, 50 μl of cell-free supernatant are removed from each well to determine the amount of p24 present by means of a p24 ELISA (HIV-1 p24^CA Antigen Capture Assay Kit, NCI-Frederick Cancer Research and Development Center, Frederick, USA). From the resulting values of the photometric evaluation (450/620 nm) the EC50 values of the test substances are determined as the concentration at which the amount of p24 is 50% of the untreated infected cells.
Alternatively, H9 cells (ATCC, Wesel, Germany) are employed instead of PBLs for testing the test substances. H9 cells are incubated in RPMI 1640 medium with 2% or 10% FCS as a HIV-1LAI supernatant infection at 37° C./5% CO2, (20 μl of substance dilution and 80 μl of cells/virus per well) in accordance with the pattern described above for 5 days. Subsequently, 10 μl of AlamarBlue (Invitrogen, Karlsruhe, Germany) are added to each well, and the MTPs are incubated at 37° C. for 3 hours before the fluorimetric evaluation takes place (544/590 nm). The resulting values are about 40 000 for the untreated uninfected cells and about 7000 for the untreated infected cells. In the low concentration range, the EC50 values of the test substances are determined as the concentration at which the fluorescence is 50% of the untreated uninfected cells (in each case subtracting the values of the untreated infected cells). In addition, in the high concentration range, the CC50 values of the test substances are determined as the concentration at which the fluorescence is 50% of the untreated uninfected cells (in each case subtracting the values of the untreated infected cells).

Assay [1] has as its system HIV-1NL4-3 reporter virus, wild-type. In words: Light assay with wild-type HI reporter virus in MT4 7F2 cells. The note with it: Human immunodeficiency virus 1, 120 h, read-out: EC50 (nM) MT4 7F2 cells HIV-1NL4-M3 wt 2% FCS. It counts as cell-based. The procedure:
(§1) For the mixture for a 96-well MTP, 3 million MT4 7F2 cells are pelleted, suspended in 1 ml of RPMI 1640 medium without phenol red (Invitrogen, Karlsruhe, Germany)/10% FCS/10% AIM-V (Invitrogen, Karlsruhe, Germany) and incubated together with a suitable amount of the corresponding HIV-1NL4-3 reporter virus at 37° C. for 2 hours (pellet infection). Unadsorbed viruses are subsequently washed out with PBS, and the infected cells are pelleted again and suspended in 8 ml of RPMI 1640 medium without phenol red/2% or 10% FCS/10% AIM-V. 80 μl thereof are pipetted into each well of a white 96-well MTP with 20 μl of test substance in suitable dilution. To avoid edge effects, the wells on the edge of the MTP are not used for substance dilutions. The second vertical row of the MTP contains only infected cells (virus control) and the eleventh vertical row only uninfected cells (cell control), in each case in RPMI 1640 medium without phenol red/2% or 10% FCS/10% AIM-V. The other wells of the MTP contain the compounds of the invention in various concentrations starting from the third vertical row, from which the test substances are diluted in 3-fold steps up to the tenth vertical row 3^7-fold. The test substances are dissolved in DMSO, whereby the final DMSO concentration in the test mixture is 1%. The test mixtures are incubated at 37° C./5% CO2 for five days and, after the addition of 15 μl of Lu164 substrate (5 mg/ml coelenterazine dissolved in 30 μM glutathione/DMSO, 100 mM NaCl, 1M MES, 100 mM glutathione), evaluated by luminometry. The resulting values are in the region of 1 000 000 RLUs (relative light units) for the virus control and 300 to 400 RLUs for the cell control. The EC50 values of the test substances are determined as the concentration at which the virus replication measured in RLUs is 50% of the untreated infected cells.

The test system of assay [2] is HIV-1NL4-3 reporter virus, reverse transcriptase mutations K103N-Y181C. The experiment in a line: Light assay with inhibitor-resistant HI reporter virus in MT4 7F2 cells. It counts as cell-based. Conditions: Human immunodeficiency virus 1, 120 h, read-out: EC50 (nM) MT4 7F2 cells HIV-1NL4-M3 K103N-Y181C 2% FCS. The procedure:
as §1

The mark [3] stands for this setting: colorimetric RT assay, final DMSO 1%, read-out: IC50 (nM) RT assay.

Regarding `O=C1CN(C(=O)c2nc(-c3ccc(F)c(Cl)c3)c(-c3cc(F)cc(Cl)c3)s2)CN1` [Example 1, 1-{[4-(3-Chloro-4-fluorophenyl)-5-(3-chloro-5-fluorophenyl)-1,3-thiazole-2-yl]carbonyl}imidazolidin-4-one], the IC50 at reverse transcriptase (setting [3]) was 61 nM. Moreover, the figures for the EC50 (in the assay with HIV-1LAI; in assay [1]; in assay [2]) were 14 nM, 2 nM and 55 nM, respectively.

Regarding `O=C1CN(C(=O)c2nc(-c3ccc(F)c(Cl)c3)c(-c3cccc(Cl)c3)s2)CN1` [Example 2, 1-{[4-(3-Chloro-4-fluorophenyl)-5-(3-chlorophenyl)-1,3-thiazole-2-yl]carbonyl}imidazolidin-4-one], the IC50 on reverse transcriptase (setting [3]) turned out to be 17 nM. Further, the EC50 in the assay with HIV-1LAI worked out at 30 nM; in assay [1], 4 nM; in assay [2], 91 nM.

`O=C1CN(C(=O)c2nc(-c3cccc(Cl)c3)c(-c3cc(F)cc(Cl)c3)s2)CN1` [Example 3, 1-{[5-(3-Chloro-5-fluorophenyl)-4-(3-chlorophenyl)-1,3-thiazole-2-yl]carbonyl}imidazolidin-4-one]: the IC50 on reverse transcriptase (setting [3]) was found to be 20 nM. Also, the figures for the EC50 (in the assay with HIV-1LAI; in assay [1]; in assay [2]) were 12 nM, 0.6 nM and 60 nM, respectively.

`N#Cc1cc(F)cc(-c2sc(C(=O)N3CNC(=O)C3)nc2-c2ccc(F)c(Cl)c2)c1` [Example 11] registered an IC50 on reverse transcriptase of 13 nM. Also, the EC50 came out at 4 nM with HIV-1LAI, 5 nM in assay [1] and 69 nM in assay [2].

Consider `O=C1CN(C(=O)c2nc(-c3cccc(Cl)c3)c(-c3cccc(Cl)c3)s2)CN1` [Example 20, 1-{[4,5-Bis(3-chlorophenyl)-1,3-thiazole-2-yl]carbonyl}imidazolidin-4-one], for which, on reverse transcriptase (setting [3]), the IC50 came to 47 nM. In addition, the EC50 with HIV-1LAI came out at 7 nM; in assay [1], 1 nM; in assay [2], 149 nM.
